We go through 20 molecules from the kinase profiling compilation of Christmann-Franck et al. (2016).

One test has as its target STK33 (human) (UniProt Q9BYT3). Put plainly: KINOMEscan competition binding. The note with it: compound 10.0 µM.
A further test has as its target PTK2 (human) (UniProt Q05397). Put plainly: KINOMEscan competition binding. The note with it: compound 10.0 µM.
A further test addresses PLK3 (human) (UniProt Q9H4B4). The experiment in a line: KINOMEscan competition binding. Conditions: compound 10.0 µM.
A further test has as its target PLK4 (human) (UniProt O00444). Put plainly: KINOMEscan competition binding. Conditions: compound 10.0 µM.
The next test addresses GAK (human) (UniProt O14976). Put plainly: KINOMEscan competition binding. The note with it: compound 10.0 µM.
Another test deals with TTK (human) (UniProt P33981). The experiment in a line: KINOMEscan competition binding. Conditions: compound 10.0 µM.
The next test deals with FLT3 (human) (UniProt P36888). The experiment in a line: KINOMEscan competition binding. The note with it: compound 10.0 µM.
The next test deals with PLK1 (human) (UniProt P53350). Put plainly: KINOMEscan competition binding. The note with it: compound 10.0 µM.
Sequence of PLK1 (human) (P53350 whole entry, looked up): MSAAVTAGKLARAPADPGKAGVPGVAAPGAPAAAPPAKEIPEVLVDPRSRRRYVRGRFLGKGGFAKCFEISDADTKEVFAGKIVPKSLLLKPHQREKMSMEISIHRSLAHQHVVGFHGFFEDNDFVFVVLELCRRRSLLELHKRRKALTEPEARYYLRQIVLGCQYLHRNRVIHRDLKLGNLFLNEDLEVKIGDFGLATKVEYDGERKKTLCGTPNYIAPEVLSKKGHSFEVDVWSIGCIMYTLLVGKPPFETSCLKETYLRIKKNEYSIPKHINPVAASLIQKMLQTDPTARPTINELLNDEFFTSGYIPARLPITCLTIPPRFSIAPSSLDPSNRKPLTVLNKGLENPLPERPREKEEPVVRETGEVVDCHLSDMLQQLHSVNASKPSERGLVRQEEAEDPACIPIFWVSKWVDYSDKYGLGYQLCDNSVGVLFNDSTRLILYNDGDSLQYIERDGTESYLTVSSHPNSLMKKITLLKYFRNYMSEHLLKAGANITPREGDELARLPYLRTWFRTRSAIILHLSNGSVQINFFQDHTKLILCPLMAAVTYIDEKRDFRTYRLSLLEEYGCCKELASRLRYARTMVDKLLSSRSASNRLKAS
Another test concerns the target TAOK1 (human) (UniProt Q7L7X3). Put plainly: KINOMEscan competition binding. Conditions: compound 10.0 µM.
Another test concerns the target MAP2K3 (human) (UniProt P46734). Put plainly: KINOMEscan competition binding. The note with it: compound 10.0 µM.
In a further test the target is PIM3 (human) (UniProt Q86V86). The experiment in a line: KINOMEscan competition binding. The note with it: compound 10.0 µM.
For test [1], the target named is PIM2 (human) (UniProt Q9P1W9). Put plainly: KINOMEscan competition binding. The note with it: compound 10.0 µM.
For test [2], the system named is EGFR (human), P00533 [G719S]. Put plainly: KINOMEscan competition binding. The note with it: compound 10.0 µM.
For another test, the target named is HIPK1 (human) (UniProt Q86Z02). Put plainly: KINOMEscan competition binding. The note with it: compound 10.0 µM.
Sequence of HIPK1 (human) (Q86Z02 whole entry, looked up): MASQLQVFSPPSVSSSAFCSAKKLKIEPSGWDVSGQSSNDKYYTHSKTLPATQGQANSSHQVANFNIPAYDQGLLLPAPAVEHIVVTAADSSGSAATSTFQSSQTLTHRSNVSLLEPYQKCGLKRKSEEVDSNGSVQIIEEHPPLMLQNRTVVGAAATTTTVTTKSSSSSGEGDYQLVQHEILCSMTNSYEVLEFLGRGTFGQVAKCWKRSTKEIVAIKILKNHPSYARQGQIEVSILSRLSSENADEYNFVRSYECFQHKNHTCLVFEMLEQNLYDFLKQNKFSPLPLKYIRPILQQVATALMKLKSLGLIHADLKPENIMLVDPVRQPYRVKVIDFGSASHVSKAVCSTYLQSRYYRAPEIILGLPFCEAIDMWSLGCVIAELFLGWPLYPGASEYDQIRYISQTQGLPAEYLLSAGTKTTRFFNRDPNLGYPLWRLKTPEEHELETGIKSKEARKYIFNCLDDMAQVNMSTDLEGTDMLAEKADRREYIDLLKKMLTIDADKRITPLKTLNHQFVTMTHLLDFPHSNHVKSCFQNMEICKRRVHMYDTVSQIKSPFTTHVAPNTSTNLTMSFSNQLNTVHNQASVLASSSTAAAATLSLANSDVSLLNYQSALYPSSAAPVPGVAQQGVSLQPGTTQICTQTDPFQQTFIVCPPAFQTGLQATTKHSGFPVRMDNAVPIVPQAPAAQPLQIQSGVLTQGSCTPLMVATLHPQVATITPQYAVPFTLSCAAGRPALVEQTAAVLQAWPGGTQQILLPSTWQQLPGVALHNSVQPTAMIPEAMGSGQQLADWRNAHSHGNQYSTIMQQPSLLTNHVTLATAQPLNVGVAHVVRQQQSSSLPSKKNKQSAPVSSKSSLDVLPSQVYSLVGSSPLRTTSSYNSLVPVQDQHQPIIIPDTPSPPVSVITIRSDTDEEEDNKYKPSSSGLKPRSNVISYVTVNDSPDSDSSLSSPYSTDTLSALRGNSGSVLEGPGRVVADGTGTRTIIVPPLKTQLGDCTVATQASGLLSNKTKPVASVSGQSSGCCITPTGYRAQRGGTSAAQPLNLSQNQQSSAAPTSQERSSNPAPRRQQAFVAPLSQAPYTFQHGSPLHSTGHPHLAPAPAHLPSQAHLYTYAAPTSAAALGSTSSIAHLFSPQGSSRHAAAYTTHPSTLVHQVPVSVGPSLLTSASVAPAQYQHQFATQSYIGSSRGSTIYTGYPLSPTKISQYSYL
For a further test, the target named is CDK16 (human) (UniProt Q00536). The experiment in a line: KINOMEscan competition binding. The note with it: compound 10.0 µM.
Test [3] addresses PIM1 (human) (UniProt P11309). The experiment in a line: KINOMEscan competition binding. Conditions: compound 10.0 µM.
Another test has as its target MAPK15 (human) (UniProt Q8TD08). Put plainly: KINOMEscan competition binding. Conditions: compound 10.0 µM.
Test [4] addresses PIM2 (human) (UniProt Q9P1W9). Put plainly: SelectScreen, TR FRET.
Test [5] concerns the target PIM1 (human) (UniProt P11309). Put plainly: SelectScreen, TR FRET. (In general: Time-resolved FRET reads energy transfer from a long-lived donor to a nearby acceptor.)
Another test deals with DCLK1 (human) (UniProt O15075). The experiment in a line: KINOMEscan competition binding. Conditions: compound 10.0 µM.
The next test has as its target RPS6KA2 KD2 (human) (UniProt Q15349). The experiment in a line: KINOMEscan competition binding. The note with it: compound 10.0 µM.
The target of the next test is RPS6KA6 KD2 (human) (UniProt Q9UK32). Put plainly: KINOMEscan competition binding. The note with it: compound 10.0 µM.
Another test has as its target MYLK (human) (UniProt Q15746). The experiment in a line: KINOMEscan competition binding. The note with it: compound 10.0 µM.
For a further test, the target named is RPS6KA1 KD2 (human) (UniProt Q15418). The experiment in a line: KINOMEscan competition binding. Conditions: compound 10.0 µM.
In the next test the target is ULK2 (human) (UniProt Q8IYT8). The experiment in a line: KINOMEscan competition binding. The note with it: compound 10.0 µM.
For the next test, the target named is STK17A (human) (UniProt Q9UEE5). The experiment in a line: KINOMEscan competition binding. The note with it: compound 10.0 µM.
Sequence of STK17A (human) (Q9UEE5 whole entry, looked up): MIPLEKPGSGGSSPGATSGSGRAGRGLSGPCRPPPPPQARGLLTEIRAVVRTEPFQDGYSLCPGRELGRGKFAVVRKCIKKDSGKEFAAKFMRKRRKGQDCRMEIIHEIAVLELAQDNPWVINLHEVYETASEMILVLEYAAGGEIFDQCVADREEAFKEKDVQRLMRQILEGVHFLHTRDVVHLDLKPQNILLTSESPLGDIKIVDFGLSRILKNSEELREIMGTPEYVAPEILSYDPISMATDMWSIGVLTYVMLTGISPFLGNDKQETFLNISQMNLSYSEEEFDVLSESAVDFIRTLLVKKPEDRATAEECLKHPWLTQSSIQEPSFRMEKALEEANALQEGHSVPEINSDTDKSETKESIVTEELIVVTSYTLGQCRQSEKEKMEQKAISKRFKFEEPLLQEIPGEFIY
Another test concerns the target PIK3CG (human) (UniProt P48736). Put plainly: KINOMEscan competition binding. Conditions: compound 10.0 µM.
Test [6] has as its target TYK2 JH2 pseudokinase (human) (UniProt P29597). Put plainly: KINOMEscan competition binding. Conditions: compound 10.0 µM.
A further test deals with DAPK1 (human) (UniProt P53355). The experiment in a line: KINOMEscan competition binding. Conditions: compound 10.0 µM.
The target of another test is STK17B (human) (UniProt O94768). The experiment in a line: KINOMEscan competition binding. Conditions: compound 10.0 µM.
Sequence of STK17B (human) (O94768 whole entry, looked up): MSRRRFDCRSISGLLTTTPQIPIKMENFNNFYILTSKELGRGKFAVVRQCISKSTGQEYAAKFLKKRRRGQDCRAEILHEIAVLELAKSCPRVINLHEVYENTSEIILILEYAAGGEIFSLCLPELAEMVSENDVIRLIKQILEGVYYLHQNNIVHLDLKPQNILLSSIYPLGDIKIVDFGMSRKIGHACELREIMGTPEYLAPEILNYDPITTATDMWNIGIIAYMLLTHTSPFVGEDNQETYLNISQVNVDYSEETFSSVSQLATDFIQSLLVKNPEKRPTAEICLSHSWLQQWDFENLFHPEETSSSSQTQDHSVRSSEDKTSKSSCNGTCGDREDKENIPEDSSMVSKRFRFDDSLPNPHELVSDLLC
A further test has as its target CSNK2A2 (human) (UniProt P19784). Put plainly: KINOMEscan competition binding. The note with it: compound 10.0 µM.
In another test the target is CLK4 (human) (UniProt Q9HAZ1). The experiment in a line: KINOMEscan competition binding. The note with it: compound 10.0 µM.
The target in a further test is ACVR2B (human) (UniProt Q13705). Put plainly: KINOMEscan competition binding. The note with it: compound 10.0 µM.
For a further test, the target named is DAPK2 (human) (UniProt Q9UIK4). Put plainly: KINOMEscan competition binding. The note with it: compound 10.0 µM.
A further test concerns the target TGFBR2 (human) (UniProt P37173). The experiment in a line: KINOMEscan competition binding. Conditions: compound 10.0 µM.
A further test has as its target GSK3A (human) (UniProt P49840). Put plainly: KINOMEscan competition binding. The note with it: compound 10.0 µM.
For another test, the target named is CLK1 (human) (UniProt P49759). The experiment in a line: KINOMEscan competition binding. Conditions: compound 10.0 µM.
A further test addresses CHUK (human) (UniProt O15111). Put plainly: KINOMEscan competition binding. The note with it: compound 10.0 µM.
A further test deals with MAPK7 (human) (UniProt Q13164). The experiment in a line: KINOMEscan competition binding. Conditions: compound 10.0 µM.
For a further test, the target named is RPS6KA4 KD2 (human) (UniProt O75676). The experiment in a line: KINOMEscan competition binding. Conditions: compound 10.0 µM.

Molecules are shown by their SMILES. Bounds are passed on as bounds.

Sequence of PIM1 (human) (P11309 whole entry, looked up): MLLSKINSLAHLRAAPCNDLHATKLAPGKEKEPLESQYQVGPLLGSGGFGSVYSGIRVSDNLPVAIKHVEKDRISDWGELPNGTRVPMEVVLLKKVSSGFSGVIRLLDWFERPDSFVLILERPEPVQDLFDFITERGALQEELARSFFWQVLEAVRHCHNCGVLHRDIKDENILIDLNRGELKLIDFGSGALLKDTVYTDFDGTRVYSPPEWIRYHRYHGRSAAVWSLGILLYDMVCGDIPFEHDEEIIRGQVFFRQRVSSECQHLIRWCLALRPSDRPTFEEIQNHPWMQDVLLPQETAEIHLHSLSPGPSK
Sequence of MYLK (human) (Q15746 whole entry, looked up): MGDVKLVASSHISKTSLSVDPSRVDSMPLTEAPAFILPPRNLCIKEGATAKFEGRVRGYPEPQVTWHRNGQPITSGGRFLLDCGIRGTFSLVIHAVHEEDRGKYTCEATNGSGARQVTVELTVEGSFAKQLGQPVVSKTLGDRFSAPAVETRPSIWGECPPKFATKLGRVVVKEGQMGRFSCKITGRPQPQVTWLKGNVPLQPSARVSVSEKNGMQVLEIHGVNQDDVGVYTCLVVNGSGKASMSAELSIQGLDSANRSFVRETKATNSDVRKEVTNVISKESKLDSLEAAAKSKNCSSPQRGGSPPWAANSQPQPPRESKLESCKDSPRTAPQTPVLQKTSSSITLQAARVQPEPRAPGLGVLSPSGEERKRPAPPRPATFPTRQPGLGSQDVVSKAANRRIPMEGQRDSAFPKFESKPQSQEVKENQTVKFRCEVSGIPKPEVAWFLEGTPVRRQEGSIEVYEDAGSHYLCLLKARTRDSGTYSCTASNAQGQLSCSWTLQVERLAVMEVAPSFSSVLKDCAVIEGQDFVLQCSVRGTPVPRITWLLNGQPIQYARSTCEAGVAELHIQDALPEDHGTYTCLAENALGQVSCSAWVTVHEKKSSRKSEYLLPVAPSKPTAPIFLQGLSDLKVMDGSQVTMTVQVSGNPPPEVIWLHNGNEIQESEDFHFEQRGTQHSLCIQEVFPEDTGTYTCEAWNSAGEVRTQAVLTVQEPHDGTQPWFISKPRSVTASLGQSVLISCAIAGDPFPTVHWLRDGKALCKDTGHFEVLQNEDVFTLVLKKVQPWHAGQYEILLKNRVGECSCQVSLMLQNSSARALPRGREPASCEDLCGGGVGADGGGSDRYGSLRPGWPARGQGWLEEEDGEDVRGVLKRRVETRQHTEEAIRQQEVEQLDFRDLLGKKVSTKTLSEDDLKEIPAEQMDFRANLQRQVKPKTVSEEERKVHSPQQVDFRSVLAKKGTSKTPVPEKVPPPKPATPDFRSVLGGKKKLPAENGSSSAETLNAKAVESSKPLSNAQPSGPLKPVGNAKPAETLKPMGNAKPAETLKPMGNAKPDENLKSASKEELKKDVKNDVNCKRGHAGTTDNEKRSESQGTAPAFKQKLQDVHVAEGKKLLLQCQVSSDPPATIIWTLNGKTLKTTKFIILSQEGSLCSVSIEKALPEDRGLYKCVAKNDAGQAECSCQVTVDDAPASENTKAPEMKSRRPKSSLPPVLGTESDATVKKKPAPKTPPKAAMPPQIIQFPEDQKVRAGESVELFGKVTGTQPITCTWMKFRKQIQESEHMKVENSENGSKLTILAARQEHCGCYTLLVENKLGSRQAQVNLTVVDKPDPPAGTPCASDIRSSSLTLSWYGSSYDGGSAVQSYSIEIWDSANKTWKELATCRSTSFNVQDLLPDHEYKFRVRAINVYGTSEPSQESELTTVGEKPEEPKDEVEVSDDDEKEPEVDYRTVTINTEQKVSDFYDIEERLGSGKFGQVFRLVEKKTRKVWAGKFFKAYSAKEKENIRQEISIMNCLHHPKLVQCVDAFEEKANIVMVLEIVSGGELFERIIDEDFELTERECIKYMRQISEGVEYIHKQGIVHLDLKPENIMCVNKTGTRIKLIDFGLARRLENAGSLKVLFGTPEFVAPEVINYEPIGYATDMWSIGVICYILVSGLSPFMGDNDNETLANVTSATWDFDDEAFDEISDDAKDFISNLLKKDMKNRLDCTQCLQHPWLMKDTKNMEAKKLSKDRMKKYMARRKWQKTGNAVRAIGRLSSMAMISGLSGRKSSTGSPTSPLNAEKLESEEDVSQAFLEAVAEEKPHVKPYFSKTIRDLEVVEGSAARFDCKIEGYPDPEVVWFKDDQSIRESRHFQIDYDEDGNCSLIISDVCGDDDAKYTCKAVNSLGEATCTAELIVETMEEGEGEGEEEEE

In the case of `CCOc1cc(N2CCC(O)CC2)ccc1Nc1ncc2c(n1)N(C1CCCC1)CCC(=O)N2C`, the kinase still bound, per cent of control on STK33 (human) was 32%; at PTK2 (human) it was 24%; at PLK3 (human), 15%; at PLK4 (human) it was 27%; on GAK (human) it was 2%; at TTK (human), 3.2%. For the same molecule, the results for the kinase still bound, per cent of control at FLT3 (human) and at PLK1 (human) were 0% and 4.3%, respectively.

With `CS(=O)(=O)Nc1ccc(-c2cccc(/C=C3\SC(=N)NC3=O)n2)cc1`, the kinase still bound, per cent of control on TAOK1 (human) came to 26%; on MAP2K3 (human), 21%; on PIM3 (human), 13%; at PIM2 (human) [1], 9.2%; in test [2], 16%; at HIPK1 (human) it was 0.4%. Moreover, the kinase still bound, per cent of control worked out at 10% at CDK16 (human), 23% on PIM1 (human) [3] and 22% at MAPK15 (human).

The term IC50 denotes the concentration at which inhibition is half-maximal. A high value points to weaker potency. For `N=C1NC(=O)/C(=C/c2ccc(-c3ccc4c(C(=O)Nc5cccc(C(F)(F)F)c5)cccc4c3)o2)S1`, the IC50 against PIM2 (human) [4] was 3420 nM; against PIM1 (human) [5], above 10000 nM.

As to `Cc1cn(-c2cc(NC(=O)c3cccc4cc(-c5ccc(/C=C6\SC(=O)NC6=O)o5)ccc34)cc(C(F)(F)F)c2)cn1`, the IC50 was 1430 nM at PIM2 (human) [4] and 5630 nM at PIM1 (human) [5].

For `CC(C)Oc1cc(N2CCC(N(C)C)CC2)ccc1Nc1ncc2c(n1)N1CCC[C@H]1CC(=O)N2C`, the kinase still bound, per cent of control at DCLK1 (human) is 7.4%; on RPS6KA2 KD2 (human), 9.4%; at RPS6KA6 KD2 (human) it was 24%; at MYLK (human), 26%; on TTK (human), 12%; at RPS6KA1 KD2 (human), 34%.

Regarding `O=C1NC(=S)S/C1=C\c1ccc(-c2csc3ccccc23)o1`, the IC50 is 375 nM at PIM2 (human) [4] and 722 nM against PIM1 (human) [5].

Regarding `CN1C(=N)NC(=O)/C1=C/c1ccc(-c2ccc(S(N)(=O)=O)cc2)o1`, the results for the kinase still bound, per cent of control on MAP2K3 (human), at PIM3 (human) and on PIM1 (human) [3] were 11%, 7.4% and 21%, respectively.

For the molecule `NS(=O)(=O)c1ccc(-c2ccc(C=C3C(=O)c4ccccc4C3=O)o2)cc1`, the kinase still bound, per cent of control at ULK2 (human) is 22%.

As for `O=C1NC(=O)/C(=C/c2ccc(-c3ccc(C(=O)Nc4ccc(N5CCNCC5)cc4)cc3)o2)S1`, the IC50 on PIM2 (human) [4] was found to be 133 nM; on PIM1 (human) [5], 246 nM. In addition, the kinase still bound, per cent of control at STK17A (human) came out at 20%; at PIK3CG (human), 17%; in [6] it was 14%; at PIM3 (human), 1.2%; at MYLK (human), 27%; on DAPK1 (human) it was 34%. Moreover, the kinase still bound, per cent of control at PIM2 (human) [1] came out at 0.75%; on HIPK1 (human), 1.1%; at STK17B (human) it was 0.65%; on GAK (human) it was 26%; at PIM1 (human) [3], 1.4%; at CSNK2A2 (human), 21%.

`N=C1NC(=O)/C(=C/c2ccc(-c3ccc(C(=O)Nc4ccc(N5CCNCC5)cc4)cc3)o2)S1`: the IC50 was 214 nM against PIM2 (human) [4] and 151 nM against PIM1 (human) [5].

Turning to `N=C1NC(=O)/C(=C/c2ccc(-c3ccc(Cl)cc3)o2)S1`, the IC50 against PIM2 (human) [4] came to 7830 nM; against PIM1 (human) [5], 895 nM. For the same molecule, the kinase still bound, per cent of control at STK17A (human) was 1.8%; on TAOK1 (human), 11%; on CLK4 (human), 30%; on MAP2K3 (human), 5.6%; at ACVR2B (human) it was 25%; on DAPK2 (human), 33%. Moreover, the kinase still bound, per cent of control on PIM3 (human) came to 3.9%; at PIM2 (human) [1], 1.4%; on TGFBR2 (human) it was 10%; at HIPK1 (human), 0.2%; on STK17B (human), 2.1%; at GSK3A (human), 7.8%. Also, the kinase still bound, per cent of control at CDK16 (human) was 14%; at CLK1 (human), 34%; at PIM1 (human) [3], 9.2%; at MAPK15 (human), 1.4%.

As to `CCN1CCN(Cc2cc(NC(=O)c3cccc4cc(-c5ccc(/C=C6\SC(=N)NC6=O)o5)ccc34)cc(C(F)(F)F)c2)CC1`, the IC50 is 814 nM against PIM2 (human) [4] and 774 nM on PIM1 (human) [5].

The molecule `NS(=O)(=O)c1ccc(-c2ccc(/C=C3\NC(=S)NC3=O)o2)cc1` had a kinase still bound, per cent of control at CHUK (human) of 32%.

Consider `CN1C(=N)NC(=O)/C1=C/c1ccc(-c2cccc3ccccc23)o1`, for which the IC50 is 9210 nM against PIM2 (human) [4] and above 10000 nM against PIM1 (human) [5]. For the same molecule, the kinase still bound, per cent of control at STK17A (human) amounted to 33%; on PIM3 (human), 9.6%; at PIM2 (human) [1] it was 2.6%; on STK17B (human) it was 32%; on GSK3A (human), 14%; at PIM1 (human) [3], 27%.

For `CC(C)Oc1cc(C(=O)N2CCC(N3CCN(C)CC3)CC2)ccc1Nc1ncc2c(n1)N(C1CCCC1)[C@@H]1CCC[C@@H]1C(=O)N2C`, the kinase still bound, per cent of control on MYLK (human) was found to be 18%; at MAPK7 (human) it was 4.8%; on PLK1 (human), 24%.

`CN1C(=N)NC(=O)/C1=C/c1ccc(-c2cncc3ccccc23)o1`: the IC50 against PIM2 (human) [4] was 3060 nM; against PIM1 (human) [5], 3560 nM.

As for `NS(=O)(=O)c1ccc(-c2ccc(/C=C3\SC(=S)NC3=O)o2)cc1`, the IC50 worked out at 177 nM against PIM2 (human) [4] and 305 nM on PIM1 (human) [5]. Also, the kinase still bound, per cent of control at PIK3CG (human) is 22%; at PLK4 (human), 14%; at PIM3 (human), 2.2%; at CDK16 (human), 10%; at PIM1 (human) [3], 1.8%.

Take `N=C1NC(=O)/C(=C/c2ccc(-c3cccc4ccccc34)o2)S1`: the results for the IC50 against PIM2 (human) [4] and against PIM1 (human) [5] were 1200 nM and 2170 nM, respectively.

As to `CC(C)Oc1cc(N2CCC(O)CC2)ccc1Nc1ncc2c(n1)N1CCC[C@H]1CC(=O)N2C`, the kinase still bound, per cent of control at RPS6KA4 KD2 (human) was found to be 32%; at PLK3 (human) it was 16%; on TTK (human), 5%; on PLK1 (human), 21%.

In the case of `NC1=N/C(=C\c2ccc(-c3ccc(S(N)(=O)=O)cc3)o2)C(=O)N1`, the kinase still bound, per cent of control at RPS6KA4 KD2 (human) is 14%; on MAP2K3 (human) it was 13%; on PIM3 (human) it was 6%; at PIM1 (human) [3] it was 9.5%.
